Source: ChEMBL document CHEMBL1201862, “PubChem BioAssay data set” (2004)
Structures can show the parent of a compound that is named as a salt. Each block holds one compound with its values, some of them ahead of it. Calls of active or inactive are those of the source.

How the values were obtained:
[1] = test system: Vero; experiment: Vero cell toxicity, dose response, cytotoxicity control, plate reader, cherry-pick samples (AID 687020); assay type: functional, cell-based; settings: Chlorocebus sabaeus
[2] = growth suppression of PTEN-null colon cells, dose response, cell-based, HCT116 PTEN knockout (AID 1047); assay type: functional;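 further: HCT116 colon tumor cells with PTEN knocked out; cells exposed to compound for 60 hours before readout; potency for loss of cell viability measured by luminescence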
[3] = growth suppression of beta-catenin-knockout colon cells, dose response, cell-based, HCT116, human colon tumor (AID 1045); assay type: functional;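 further: HCT116 colon tumor cells with beta catenin knocked out; cells exposed to compound for 60 hours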
[4] = target: SWI/SNF-related matrix-associated actin-dependent regulator of chromatin subfamily A member 2 (Homo sapiens, UniProt P51531); experiment: Luminescence-based cell-based high throughput dose response assay to identify activators of the function of SWI/SNF related, matrix associated, actin dependent regulator of chromatin, subfamily a, member 2 (SMARCA2, BRM).; assay type: functional
SWI/SNF-related matrix-associated actin-dependent regulator of chromatin subfamily A member 2, sequence (P51531 whole entry): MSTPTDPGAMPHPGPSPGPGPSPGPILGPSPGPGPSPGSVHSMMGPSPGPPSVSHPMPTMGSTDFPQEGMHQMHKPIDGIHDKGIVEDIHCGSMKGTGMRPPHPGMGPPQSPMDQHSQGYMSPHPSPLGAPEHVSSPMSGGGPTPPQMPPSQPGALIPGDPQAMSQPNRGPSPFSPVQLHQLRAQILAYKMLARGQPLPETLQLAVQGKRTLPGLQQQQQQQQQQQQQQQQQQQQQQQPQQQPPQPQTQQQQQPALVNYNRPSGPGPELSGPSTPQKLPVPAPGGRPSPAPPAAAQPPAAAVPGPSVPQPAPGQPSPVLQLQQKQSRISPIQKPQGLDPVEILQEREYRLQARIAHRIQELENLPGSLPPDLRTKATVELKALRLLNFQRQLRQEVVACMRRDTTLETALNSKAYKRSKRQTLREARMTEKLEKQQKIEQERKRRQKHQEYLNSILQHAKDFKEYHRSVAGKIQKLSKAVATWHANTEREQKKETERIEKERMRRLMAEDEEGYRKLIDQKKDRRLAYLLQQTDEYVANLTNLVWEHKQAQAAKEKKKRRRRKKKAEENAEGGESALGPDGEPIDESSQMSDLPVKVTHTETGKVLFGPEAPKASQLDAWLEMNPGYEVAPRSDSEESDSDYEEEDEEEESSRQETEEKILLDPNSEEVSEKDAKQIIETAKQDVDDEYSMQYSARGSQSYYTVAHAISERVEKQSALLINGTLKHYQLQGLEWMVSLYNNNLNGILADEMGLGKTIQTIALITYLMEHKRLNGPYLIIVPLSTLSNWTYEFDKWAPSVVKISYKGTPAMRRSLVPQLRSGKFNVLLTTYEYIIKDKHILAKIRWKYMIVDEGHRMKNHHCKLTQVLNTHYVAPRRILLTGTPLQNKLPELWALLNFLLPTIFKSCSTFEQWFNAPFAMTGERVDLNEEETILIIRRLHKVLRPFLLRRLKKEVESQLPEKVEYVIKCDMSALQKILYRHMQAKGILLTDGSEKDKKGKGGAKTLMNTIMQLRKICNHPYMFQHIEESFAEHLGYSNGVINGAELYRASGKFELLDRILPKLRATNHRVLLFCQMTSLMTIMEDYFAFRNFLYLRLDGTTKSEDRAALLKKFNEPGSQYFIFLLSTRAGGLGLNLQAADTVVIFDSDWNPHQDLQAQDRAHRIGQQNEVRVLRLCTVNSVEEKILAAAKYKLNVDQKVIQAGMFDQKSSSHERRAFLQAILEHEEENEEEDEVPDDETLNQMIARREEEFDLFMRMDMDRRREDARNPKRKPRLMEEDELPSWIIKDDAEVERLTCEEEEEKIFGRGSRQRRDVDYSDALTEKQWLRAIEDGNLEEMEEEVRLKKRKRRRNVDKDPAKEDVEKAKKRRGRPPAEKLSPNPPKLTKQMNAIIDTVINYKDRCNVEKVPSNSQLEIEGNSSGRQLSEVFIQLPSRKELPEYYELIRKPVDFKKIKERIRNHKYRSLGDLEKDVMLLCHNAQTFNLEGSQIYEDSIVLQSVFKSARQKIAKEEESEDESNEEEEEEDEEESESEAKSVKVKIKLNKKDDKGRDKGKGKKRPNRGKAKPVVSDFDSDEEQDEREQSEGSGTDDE

[5] = Counterscreen for activators of the function of SWI/SNF related, matrix associated, actin dependent regulator of chromatin, subfamily a, member 2 (SMARCA2, BRM): Luminescence-based cell-based high throughput dose response assay to identify non-selective compounds using the VP16 reporter assay.; assay type: functional
[6] = target: Mu-type opioid receptor (Homo sapiens, UniProt P35372); assay type: functional, cell-based;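 further: U2OS cells with beta-arrestin recruitment to OPRM1 by beta-gal complementation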
Mu-type opioid receptor, sequence (P35372 whole entry): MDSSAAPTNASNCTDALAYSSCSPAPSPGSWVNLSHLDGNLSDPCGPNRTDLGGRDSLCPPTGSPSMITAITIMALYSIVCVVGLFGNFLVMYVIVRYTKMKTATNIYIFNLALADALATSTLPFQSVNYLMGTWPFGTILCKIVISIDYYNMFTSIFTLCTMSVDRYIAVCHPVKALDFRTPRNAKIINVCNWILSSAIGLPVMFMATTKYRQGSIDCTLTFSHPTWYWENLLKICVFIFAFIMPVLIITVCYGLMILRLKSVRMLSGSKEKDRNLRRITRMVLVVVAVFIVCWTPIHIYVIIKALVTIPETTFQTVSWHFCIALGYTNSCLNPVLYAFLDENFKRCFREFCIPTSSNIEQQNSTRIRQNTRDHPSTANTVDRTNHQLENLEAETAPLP

[7] = target: 5-hydroxytryptamine receptor 2A (Mus musculus, UniProt P35363); assay type: functional, cell-based;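 further: CHO-K1 cells with tagged receptor and beta-arrestin; agonist potency measured as compound-induced activation of the receptor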
5-hydroxytryptamine receptor 2A, sequence (P35363 whole entry): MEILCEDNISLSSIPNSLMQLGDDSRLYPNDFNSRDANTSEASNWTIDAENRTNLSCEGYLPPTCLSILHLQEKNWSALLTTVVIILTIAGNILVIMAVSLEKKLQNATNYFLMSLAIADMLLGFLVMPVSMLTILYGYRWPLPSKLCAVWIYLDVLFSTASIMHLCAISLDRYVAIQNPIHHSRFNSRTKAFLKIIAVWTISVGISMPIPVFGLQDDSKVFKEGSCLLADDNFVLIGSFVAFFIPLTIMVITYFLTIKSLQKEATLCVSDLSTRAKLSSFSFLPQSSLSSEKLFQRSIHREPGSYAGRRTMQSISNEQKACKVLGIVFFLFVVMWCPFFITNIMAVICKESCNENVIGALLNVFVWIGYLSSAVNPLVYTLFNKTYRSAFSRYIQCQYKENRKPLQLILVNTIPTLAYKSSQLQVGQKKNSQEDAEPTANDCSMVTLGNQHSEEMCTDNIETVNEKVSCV

[8] = target: Broad substrate specificity ATP-binding cassette transporter ABCG2 (Homo sapiens, UniProt Q9UNQ0); experiment: ABCG2 efflux pump inhibitors, dose response, Ig-MXP3 cells, flow cytometry (AID 1690); assay type: functional
Broad substrate specificity ATP-binding cassette transporter ABCG2, sequence (Q9UNQ0 whole entry): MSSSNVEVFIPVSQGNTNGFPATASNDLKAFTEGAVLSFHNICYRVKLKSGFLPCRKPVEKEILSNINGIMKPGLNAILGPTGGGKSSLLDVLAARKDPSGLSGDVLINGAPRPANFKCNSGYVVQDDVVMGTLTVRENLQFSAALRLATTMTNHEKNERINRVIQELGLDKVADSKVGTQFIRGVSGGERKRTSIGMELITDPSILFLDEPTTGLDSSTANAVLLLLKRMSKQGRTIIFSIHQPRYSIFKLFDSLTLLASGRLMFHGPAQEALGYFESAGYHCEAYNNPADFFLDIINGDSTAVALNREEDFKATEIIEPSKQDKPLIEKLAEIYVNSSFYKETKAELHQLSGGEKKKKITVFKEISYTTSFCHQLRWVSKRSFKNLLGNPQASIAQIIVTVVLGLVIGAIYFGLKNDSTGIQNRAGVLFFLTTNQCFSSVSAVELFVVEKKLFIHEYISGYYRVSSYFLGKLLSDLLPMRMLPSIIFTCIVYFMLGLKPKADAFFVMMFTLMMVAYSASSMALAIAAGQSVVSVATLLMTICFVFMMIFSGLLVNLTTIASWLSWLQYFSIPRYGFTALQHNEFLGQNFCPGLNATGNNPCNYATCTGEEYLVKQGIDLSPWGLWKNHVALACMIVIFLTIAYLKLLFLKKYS

[9] = target: T1, Tyrosine-protein phosphatase non-receptor type 11 (Homo sapiens, UniProt Q06124); experiment: SHP2 phosphatase inhibition, dose response, selectivity assay for STEP inhibitor project, biochemical (AID 602367); assay type: functional; settings: read-out: IC50_Mean
T1 sequence (Q06124 whole entry): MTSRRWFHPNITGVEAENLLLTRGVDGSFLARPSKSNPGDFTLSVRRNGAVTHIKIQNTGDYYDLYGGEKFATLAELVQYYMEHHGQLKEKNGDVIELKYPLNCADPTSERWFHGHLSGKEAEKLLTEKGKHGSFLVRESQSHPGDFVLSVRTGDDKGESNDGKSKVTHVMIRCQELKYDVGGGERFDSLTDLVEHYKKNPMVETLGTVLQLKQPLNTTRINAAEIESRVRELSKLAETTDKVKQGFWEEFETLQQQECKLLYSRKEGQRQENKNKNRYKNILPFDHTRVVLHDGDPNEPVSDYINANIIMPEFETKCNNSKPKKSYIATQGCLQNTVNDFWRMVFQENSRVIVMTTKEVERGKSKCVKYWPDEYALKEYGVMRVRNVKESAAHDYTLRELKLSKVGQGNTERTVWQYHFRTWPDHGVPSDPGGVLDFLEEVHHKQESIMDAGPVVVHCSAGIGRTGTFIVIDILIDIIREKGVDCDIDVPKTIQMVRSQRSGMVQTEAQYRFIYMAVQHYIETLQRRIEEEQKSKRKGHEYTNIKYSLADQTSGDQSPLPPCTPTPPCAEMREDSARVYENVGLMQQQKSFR

[10] = target: T2, Tyrosine-protein phosphatase non-receptor type 5 (Homo sapiens, UniProt P54829); experiment: STEP phosphatase inhibitors, confirmation, biochemical, fluorescence intensity, uHTS hits (AID 602372); assay type: functional; settings: read-out: IC50_Mean
T2 sequence (P54829 whole entry): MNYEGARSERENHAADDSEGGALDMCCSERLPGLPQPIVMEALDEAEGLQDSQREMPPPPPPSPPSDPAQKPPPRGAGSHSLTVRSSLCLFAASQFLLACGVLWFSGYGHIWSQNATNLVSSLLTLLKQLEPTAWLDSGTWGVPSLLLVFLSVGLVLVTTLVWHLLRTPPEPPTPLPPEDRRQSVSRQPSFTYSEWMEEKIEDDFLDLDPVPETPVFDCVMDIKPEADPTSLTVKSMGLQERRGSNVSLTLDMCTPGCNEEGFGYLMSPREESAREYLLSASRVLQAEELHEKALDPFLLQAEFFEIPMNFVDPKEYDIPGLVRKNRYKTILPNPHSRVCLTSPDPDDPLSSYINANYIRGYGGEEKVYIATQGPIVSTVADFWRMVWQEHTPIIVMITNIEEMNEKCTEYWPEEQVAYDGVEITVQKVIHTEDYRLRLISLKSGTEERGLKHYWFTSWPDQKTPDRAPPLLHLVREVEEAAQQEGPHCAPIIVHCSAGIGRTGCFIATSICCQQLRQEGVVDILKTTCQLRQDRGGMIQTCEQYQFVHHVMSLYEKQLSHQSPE

[11] = target: Dual specificity protein phosphatase 3 (Homo sapiens, UniProt P51452); experiment: VHR phosphatase inhibition, dose response, selectivity assay for STEP inhibitor project, biochemical (AID 602374); assay type: functional; settings: read-out: IC50_Mean
Dual specificity protein phosphatase 3, sequence (P51452 whole entry, the tested form may be a part): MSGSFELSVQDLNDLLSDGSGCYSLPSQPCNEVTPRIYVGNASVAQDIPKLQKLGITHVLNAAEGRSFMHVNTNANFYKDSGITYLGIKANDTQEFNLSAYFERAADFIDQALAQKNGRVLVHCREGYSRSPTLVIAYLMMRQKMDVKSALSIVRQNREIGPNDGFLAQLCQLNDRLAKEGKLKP

[12] = target: Arf-GAP with SH3 domain, ANK repeat and PH domain-containing protein 1 (Homo sapiens, UniProt Q9ULH1); assay type: functional;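 further: biochemical fluorescence polarization dose–response screen measuring inhibition of ASAP1; ASAP1 GAP domain stimulating GTP hydrolysis by truncated human ARF1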
Arf-GAP with SH3 domain, ANK repeat and PH domain-containing protein 1, sequence (Q9ULH1 whole entry, the tested form may be a part): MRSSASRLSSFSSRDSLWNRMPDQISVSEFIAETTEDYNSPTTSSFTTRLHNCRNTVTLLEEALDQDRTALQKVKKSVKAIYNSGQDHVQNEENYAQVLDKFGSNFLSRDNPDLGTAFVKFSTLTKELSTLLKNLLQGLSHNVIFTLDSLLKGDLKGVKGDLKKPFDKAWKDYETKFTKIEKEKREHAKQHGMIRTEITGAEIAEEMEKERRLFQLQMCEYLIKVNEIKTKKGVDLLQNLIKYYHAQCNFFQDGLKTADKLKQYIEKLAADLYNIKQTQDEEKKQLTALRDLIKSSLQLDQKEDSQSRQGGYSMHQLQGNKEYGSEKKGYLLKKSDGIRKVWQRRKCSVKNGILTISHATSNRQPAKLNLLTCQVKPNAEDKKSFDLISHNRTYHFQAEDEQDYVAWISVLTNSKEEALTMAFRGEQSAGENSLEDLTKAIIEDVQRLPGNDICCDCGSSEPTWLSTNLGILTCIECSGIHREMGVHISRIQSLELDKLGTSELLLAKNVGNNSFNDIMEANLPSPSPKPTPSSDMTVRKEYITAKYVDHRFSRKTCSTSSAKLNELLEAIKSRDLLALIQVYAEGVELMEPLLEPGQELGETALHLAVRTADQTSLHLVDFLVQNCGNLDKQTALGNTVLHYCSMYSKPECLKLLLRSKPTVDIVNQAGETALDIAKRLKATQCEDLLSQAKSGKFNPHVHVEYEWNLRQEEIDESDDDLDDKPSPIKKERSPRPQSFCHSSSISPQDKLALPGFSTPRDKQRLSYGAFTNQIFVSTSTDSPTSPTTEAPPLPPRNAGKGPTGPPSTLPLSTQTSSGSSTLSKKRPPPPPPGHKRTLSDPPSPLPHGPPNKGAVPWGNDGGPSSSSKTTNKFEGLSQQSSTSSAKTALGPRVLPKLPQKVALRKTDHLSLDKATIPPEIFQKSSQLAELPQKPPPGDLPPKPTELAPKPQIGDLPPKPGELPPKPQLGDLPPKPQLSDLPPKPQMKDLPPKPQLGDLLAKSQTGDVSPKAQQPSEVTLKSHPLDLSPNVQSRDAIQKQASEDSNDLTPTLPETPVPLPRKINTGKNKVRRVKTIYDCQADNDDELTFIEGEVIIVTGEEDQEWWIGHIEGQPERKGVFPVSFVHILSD

Compound: N#Cc1ccc(CN2CCN(C(=O)CC(NC(=O)c3ccccc3)c3ccccc3)CC2)cc1 (configuration not stated)
AC50 [1]: 38.1 µM (active)

Compound: OC1CCCN(Cc2ccc3ccc4cccc5ccc2c3c45)C1 (configuration not stated)
EC50 [2]: 8.96 µM (active)
EC50 [3]: 8.21 µM (active)
EC50 [4]: > 10.1 µM (inactive)
EC50 [5]: > 91.2 µM (inactive)

Compound: CCCN1CCC[C@@H](c2cccc(O)c2)C1 [PRECLAMOL HYDROCHLORIDE]
EC50 [6]: 92.4 µM (inactive)
EC50 [7]: 76 µM (inactive)

EC50 [8]: 24.4 µM (inactive)
Compound: COc1ccc2cc(C(=O)OC(C)C)sc(=O)c2c1OC

IC50 [9]: 0.409 µM (active)
IC50 [10]: > 80 µM (inactive)
IC50 [11]: 0.716 µM (active)
IC50 [12]: 2.48 µM (active)
Compound: Cc1nnc2sc(-c3ccc(NC(=O)c4ccc(-c5ccc(Cl)cc5Cl)o4)cc3)nn12
